System: rabbit's isolated aorta
Experiment: KCl-induced contraction of the rabbit's isolated aorta (antispasmodic activity on the smooth muscles)
Assay type: cell-based
Details: Oryctolagus cuniculus, Godfraind method, read-out: ED50 (the source's name)
From the text: The compounds of the present invention are endowed with antispasmodic activity on the smooth muscles with has been established with the test of KCl--induced contraction of the rabbit's isolated aorta according to Godfraind and coll. (Arch. Int. Pharmacodyn., 172, 235, 1968).

Row | SMILES | IC50 [µg/mL]
1 | COc1cc(CN(C)CCN(C)CCC(c2ccccc2)c2ccccc2)cc(OC)c1OC [N1,N2-dimethyl-N1-(3,4,5-trimethoxybenzyl)-N2-(3,3-diphenylpropyl)-ethylenediamine dimaleate] | 1.3
2 | COc1ccc(C(O)(CCN(C)CCN(C)Cc2ccccc2)c2ccc(OC)cc2)cc1 [N1,N2-dimethyl-N1-benzyl-N2-(3,3-di-p-methoxyphenyl-3-hydroxypropyl)-ethylenediamine dimaleate] | 5.2
3 | CN(CC=C(c1ccccc1)c1ccccc1)CCN(C)Cc1ccccc1 [N1,N2-dimethyl-N1-benzyl-N2-(3,3-diphenylallyl)-ethylenediamine dimaleate] | 2.1
4 | CN(CCC(c1ccccc1)c1ccccc1)CCN(C)Cc1ccccc1 [N1,N2-dimethyl-N1-benzyl-N2-(3,3-diphenylpropyl)-ethylenediamine dimaleate] | 4.6

— patent publication US4381305A, “Ethylenediamine derivatives and pharmaceutical compositions containing same” (Simes S.p.A., priority 1980, dated 1983)
